≈ marks a conversion by molar mass, not a printed value.
The compounds below were run on Staphylococcus aureus (assay: Antibacterial activity against Staphylococcus aureus isolate 42 […] by CLSI method).
Type: functional
`CCCCCCCCCC(=O)N[C@@H](Cc1c[nH]c2ccccc12)C(=O)N[C@@H](CC(N)=O)C(=O)N[C@@H](CC(=O)O)C(=O)N[C@@H]1C(=O)NCC(=O)N[C@@H](CCCN)C(=O)N[C@@H](CC(=O)O)C(=O)N[C@H](C)C(=O)N[C@@H](CC(=O)O)C(=O)NCC(=O)N[C@H](CO)C(=O)N[C@@H]([C@H](C)CC(N)=O)C(=O)N[C@@H](CC(=O)c2ccccc2N)C(=O)O[C@@H]1C` gave an MIC of 32 µg/mL (≈ 19.8 µM). Compound `CCCCCCCCCC(=O)N[C@@H](Cc1c[nH]c2ccccc12)C(=O)N[C@@H](CC(N)=O)C(=O)N[C@@H](CC(=O)O)C(=O)N[C@@H]1C(=O)NCC(=O)N[C@@H](CCCN)C(=O)N[C@@H](CC(=O)O)C(=O)N[C@H](C)C(=O)N[C@@H](CC(=O)O)C(=O)NCC(=O)N[C@H](CO)C(=O)N[C@@H](C(C)(C)CC(=O)O)C(=O)N[C@@H](CC(=O)c2ccccc2N)C(=O)O[C@@H]1C` has an MIC of 64 µg/mL (≈ 39.2 µM). For `CCCCCCCCCC(=O)N[C@@H](Cc1c[nH]c2ccccc12)C(=O)N[C@@H](CC(N)=O)C(=O)N[C@@H](CC(=O)O)C(=O)N[C@@H]1C(=O)NCC(=O)N[C@@H](CCCN)C(=O)N[C@@H](CC(=O)O)C(=O)N[C@H](C)C(=O)N[C@@H](CC(=O)O)C(=O)NCC(=O)N[C@H](CO)C(=O)N[C@@H]([C@H](CC)CC(=O)O)C(=O)N[C@@H](CC(=O)c2ccccc2N)C(=O)O[C@@H]1C`, the MIC was 8 µg/mL (≈ 4.89 µM). In the case of `CCCCCCCCCC(=O)N[C@@H](Cc1c[nH]c2ccccc12)C(=O)N[C@H](CC(N)=O)C(=O)N[C@@H](CC(=O)O)C(=O)N[C@@H]1C(=O)NCC(=O)N[C@@H](CCCN)C(=O)N[C@@H](CC(=O)O)C(=O)N[C@H](C)C(=O)N[C@@H](CC(=O)O)C(=O)NCC(=O)N[C@H](CO)C(=O)N[C@@H]([C@H](C)CC(=O)O)C(=O)N[C@@H](CC(=O)c2ccccc2N)C(=O)O[C@@H]1C`, the MIC is reported as 0.5 µg/mL (≈ 0.309 µM). Work on `CCCCCCCCCC(=O)N[C@@H](Cc1c[nH]c2ccccc12)C(=O)N[C@@H](CC(N)=O)C(=O)N[C@@H](CC(=O)O)C(=O)N[C@@H]1C(=O)NCC(=O)N[C@@H](CCCN)C(=O)N[C@@H](CC(=O)O)C(=O)N[C@H](C)C(=O)N[C@@H](CC(=O)O)C(=O)NCC(=O)N[C@H](CO)C(=O)N[C@@H](C(C)CC(=O)O)C(=O)N[C@@H](CC(=O)c2ccccc2N)C(=O)O[C@@H]1C` (single isomer, unassigned) [DAPTOMYCIN] yielded an MIC of 128 µg/mL (≈ 79 µM).

Source: ChEMBL document CHEMBL4000217, “Structure-activity relationship of daptomycin analogues with substitution at (2S, 3R) 3-methyl glutamic acid position” (2017)
